Several values for one entry are separate records, joined by “and”; a condition that tells them apart may be missing. Equal values may be shown once. Read-outs that look alike come from different tables or passages of the source.
Experiments:
[1] = test system: cows (Holstein Friesians); test: Treatment with DPD analogs (organosulfur compounds) and milk yield (Example 8); format: in vivo, cow; settings: for % reduction after 24 h average (milk yield): 24 h after one oral gel capsule; for % reduction after 24 h average (milk yield) / % reduction after 48 h average (milk yield) / % reduction after 72 h average (milk yield) / % reduction after 96 h average (milk yield) / average reduction after 24, 48 and 72 h (%) (milk yield) / Average reduction after 24 and 48 h (%) (milk yield): dose equimolar to 80 ml di-n-propyl disulfide; for % reduction after 24 h average (milk yield) / % reduction after 48 h average (milk yield) / % reduction after 72 h average (milk yield) / % reduction after 96 h average (milk yield): negative value = increase in yield; for % reduction after 48 h average (milk yield): 48 h after one oral gel capsule; for % reduction after 72 h average (milk yield): 72 h after one oral gel capsule; for % reduction after 96 h average (milk yield): 96 h after one oral gel capsule; for average reduction after 24, 48 and 72 h (%) (milk yield): average of 24, 48 and 72 h after one oral gel capsule; for Average reduction after 24 and 48 h (%) (milk yield): average of 24 and 48 h after one oral gel capsule; for Milk yield (kg) Last milking: before administration, single oral gel capsule dose per cow (ml unless g): diethyl disulfide 63, di-n-propyl disulfide 80, diisopropyl disulfide 160, di-n-butyl disulfide 100, dibenzyl disulfide 102, diethyl sulfide 55, di-n-propyl sulfide 72, diisopropyl sulfide 74, di-n-butyl sulfide 90, dibenzyl sulfide 96 g, diphenyl sulfide 85, di-n-propyl trisulfide 98, di-n-propyl sulfone 6; for Milk yield (kg) Last milking / Average reduction after 24 and 48 h (%) / Milk yield (kg) After 24 h / Milk yield (kg) After 48 h / Milk yield (kg) After 72 h / Milk yield (kg) After 96 h / average reduction after 24, 48 and 72 h (%) / % reduction after 24 h / % reduction after 48 h / % reduction after 72 h / % reduction after 96 h: individual cows; for Average reduction after 24 and 48 h (%) / Milk yield (kg) After 24 h / Milk yield (kg) After 48 h / Milk yield (kg) After 72 h / Milk yield (kg) After 96 h / average reduction after 24, 48 and 72 h (%) / % reduction after 24 h / % reduction after 48 h / % reduction after 72 h / % reduction after 96 h: dose per compound as listed in E284; for % reduction after 24 h / % reduction after 48 h / % reduction after 72 h / % reduction after 96 h: vs milk yield before treatment
Method: Study design. 36 cows (Holstein Friesians) from 2 farms were used. The feed of the cows was composed of TMR, including corn and grass silage, supplemented with soya and minerals. […] The cows were milked in a milk robot. […] The cows were milked twice a day. The cows were housed in free stables. […] Placebo treatment corresponded to administration of two gel capsules containing 180 ml water.
For this study dosages synthetic compounds (>96% purity) as indicated in table 17 were administered to cows. The objective of this study was to compare the activity of a corresponding dose of the compounds expressed in mol, based on the number of moles that is present in 80 ml di-n-propyl disulfide at 20° C. The number of moles was converted to ml or grams of the tested compounds. For this purpose, the molecular weight and specific density were used in the calculations. The compounds were formulated in the gel capsules as indicated in the previous examples.
Before the various dosages were administered, the milk yields were monitored for at least 5 days.

[2] = test system: cows (Holstein Friesians)
Method: Study design. Twelve cows (Holstein Friesians) from 1 farm were used. The start of the dry period of every cow was between 40 to 60 days before calving. The cows were milked twice a day at fixed times and the cows were selected on a milk production of >12.5 litres/day 24 hours before PTS administering took place. […] No extra measures were taken to stimulate dry-off, such as changes in feed ration or changes in milking frequency. The cows were milked twice a day. The cows were housed in free stables. A porcine gelatine capsule with PTS or placebo gel capsule with water were administered 7 to 14 days before the start of the dry-off period.
For this study various dosages synthetic PTS (>98% purity) were administered to cows with a milk yield of at least 12.5 kg milk per day. The following dosages were applied: 0, 10, 20, 40 ml of pure PTS. For each dosage 2 cows were used.
Before the various dosages were administered the milk yield was monitored for 14 days. The gel capsules were orally administered by a bolus shooter, the gel capsule for the placebo group contained tap water. Administering of a capsule took place between the morning and afternoon milking. On t=14 days the PTS-containing capsules and the placebo capsules were administered and the milk yield was monitored 48 hours more.

di-isopropyl thiosulfonate [Diisopropyl thiosulfonate]
% reduction after 24 h average (milk yield) [1]: 28%
% reduction after 48 h average (milk yield) [1]: 26%
% reduction after 72 h average (milk yield) [1]: 9%
% reduction after 96 h average (milk yield) [1]: 0%
average reduction after 24, 48 and 72 h (%) (milk yield) [1]: 21%
Average reduction after 24 and 48 h (%) (milk yield) [1]: 27%
Milk yield (kg) Last milking [1]: 28.9 kg
Average reduction after 24 and 48 h (%) [1]: 27%
Milk yield (kg) After 24 h [1]: 20.8 kg
Milk yield (kg) After 48 h [1]: 21.4 kg
Milk yield (kg) After 72 h [1]: 26.3 kg
Milk yield (kg) After 96 h [1]: 28.8 kg
average reduction after 24, 48 and 72 h (%) [1]: 21%
% reduction after 24 h [1]: 28%
% reduction after 48 h [1]: 26%
% reduction after 72 h [1]: 9%
% reduction after 96 h [1]: 0%

CCCS[S+]([O-])CCC (stereo not shown) [PTS, di-n-propyl thiosulfinate]
effect on milk yield compared to the milk yield before treatment ([2]; 20 ml PTS): clear lowering on milk yield
effect on milk yield/day ([2]; 40 and 60 ml PTS): visible
Milk yield ([2]; 40 ml PTS given after last milking on day 0, day 0, individual cows): 32.4 kg and 28.4 kg
Milk yield ([2]; 40 ml PTS given on day 0, day 1, individual cows): 22.4 kg and 21.9 kg
Milk yield ([2]; 40 ml PTS given on day 0, day 2, individual cows): 24.4 kg and 23.4 kg
Milk yield ([2]; 40 ml PTS given on day 0, day 3, individual cows): 28.9 kg and 26.4 kg
Milk yield ([2]; 40 ml PTS given on day 0, day 4, individual cows): 32.2 kg and 27.1 kg
Milk yield ([2]; 40 ml PTS given on day 0, day 5, individual cows): 31.2 kg and 28.2 kg
Milk yield ([2]; 40 ml PTS given on day 0, day 6, individual cows): 32.0 kg and 28.3 kg
Milk yield ([2]; 40 ml PTS given on day 0, day −1, individual cows): 31.9 kg and 27.7 kg
Milk yield ([2]; 40 ml PTS given on day 0, day −2, individual cows): 32.2 kg and 28.9 kg
Milk yield ([2]; 40 ml PTS given on day 0, day −3, individual cows): 33.3 kg and 28.1 kg
Milk yield ([2]; 40 ml PTS given on day 0, day −4, individual cows): 31.9 kg and 28.5 kg
Milk yield ([2]; 40 ml PTS given on day 0, day −5, individual cows): 31.4 kg and 27.9 kg
Milk yield ([2]; 40 ml PTS given on day 0, day −6, individual cows): 33.2 kg and 28.3 kg
Average milking/day of last 7 days before administration ([2]; 40 ml PTS, individual cows): 32.3 kg and 28.3 kg
% reduction after 24 h ([2]; 40 ml PTS, individual cows): 31% and 23%
% reduction after 48 h ([2]; 40 ml PTS, individual cows): 24% and 17%
% reduction after 72 h ([2]; 40 ml PTS, individual cows): 11% and 7%
Average reduction 24 and 48 h (%) ([2]; 40 ml PTS, individual cows): 28% and 20%
Milk yield After 24 h ([2]; 40 ml PTS, individual cows): 22.4 kg and 21.9 kg
Milk yield After 48 h ([2]; 40 ml PTS, individual cows): 24.4 kg and 23.4 kg
Milk yield After 72 h ([2]; 40 ml PTS, individual cows): 28.9 kg and 26.4 kg
Milk yield After 96 h ([2]; 40 ml PTS, individual cows): 32.2 kg and 27.1 kg
Milk yield After 120 h ([2]; 40 ml PTS, individual cows): 31.2 kg and 28.2 kg
Milk yield ([2]; 60 ml PTS given after last milking on day 0, day 0, individual cows): 32.4 kg and 29.3 kg
Milk yield ([2]; 60 ml PTS given on day 0, day 1, individual cows): 19.4 kg and 14.5 kg
Milk yield ([2]; 60 ml PTS given on day 0, day 2, individual cows): 20.0 kg and 14.9 kg
Milk yield ([2]; 60 ml PTS given on day 0, day 3, individual cows): 23.9 kg and 23.4 kg
Milk yield ([2]; 60 ml PTS given on day 0, day 4, individual cows): 27.8 kg and 27.2 kg
Milk yield ([2]; 60 ml PTS given on day 0, day 5, individual cows): 31.6 kg and 28.3 kg
Milk yield ([2]; 60 ml PTS given on day 0, day 6, individual cows): 32.2 kg and 27.4 kg
Milk yield ([2]; 60 ml PTS given on day 0, day −1, individual cows): 32.2 kg and 28.1 kg
Milk yield ([2]; 60 ml PTS given on day 0, day −2, individual cows): 33.2 kg and 28.3 kg
Milk yield ([2]; 60 ml PTS given on day 0, day −3, individual cows): 31.9 kg and 27.4 kg
Milk yield ([2]; 60 ml PTS given on day 0, day −4, individual cows): 33.5 kg and 29.6 kg
Milk yield ([2]; 60 ml PTS given on day 0, day −5, individual cows): 32.4 kg and 28.3 kg
Milk yield ([2]; 60 ml PTS given on day 0, day −6, individual cows): 33.4 kg and 28.9 kg
Average milking/day of last 7 days before administration ([2]; 60 ml PTS, individual cows): 28.6 kg and 32.7 kg
% reduction after 24 h ([2]; 60 ml PTS, individual cows): 51% and 40%
% reduction after 48 h ([2]; 60 ml PTS, individual cows): 48% and 39%
% reduction after 72 h ([2]; 60 ml PTS, individual cows): 18% and 27%
% reduction after 96 h ([2]; 60 ml PTS, individual cows): 5% and 15%
Average reduction 24 and 48 h (%) ([2]; 60 ml PTS, individual cows): 50% and 40%
Milk yield After 24 h ([2]; 60 ml PTS, individual cows): 14.5 kg and 19.4 kg
Milk yield After 48 h ([2]; 60 ml PTS, individual cows): 14.9 kg and 20 kg
Milk yield After 72 h ([2]; 60 ml PTS, individual cows): 23.4 kg and 23.9 kg
Milk yield After 96 h ([2]; 60 ml PTS, individual cows): 27.2 kg and 27.8 kg
Milk yield After 120 h ([2]; 60 ml PTS, individual cows): 28.3 kg and 31.6 kg
time to recovery of milk yield after administration ([2]; PTS): 3 to 4 days
damage to the udder ([2]; bovine, in vivo): does not reduce milk yield because of damaging the udder
% reduction after 24 h average (milk yield) [1]: 45%
% reduction after 48 h average (milk yield) [1]: 44%
% reduction after 72 h average (milk yield) [1]: 23%
% reduction after 96 h average (milk yield) [1]: 10%
average reduction after 24, 48 and 72 h (%) (milk yield) [1]: 37%
Average reduction after 24 and 48 h (%) (milk yield) [1]: 45%
Milk yield (kg) Last milking [1]: 28.6 kg and 32.7 kg
Average reduction after 24 and 48 h (%) [1]: 49% and 40%
Milk yield (kg) After 24 h [1]: 14.5 kg and 19.4 kg
Milk yield (kg) After 48 h [1]: 14.9 kg and 20 kg
Milk yield (kg) After 72 h [1]: 23.4 kg and 23.9 kg
Milk yield (kg) After 96 h [1]: 27.2 kg and 27.8 kg
average reduction after 24, 48 and 72 h (%) [1]: 39% and 35.7%
% reduction after 24 h [1]: 49% and 40%
% reduction after 48 h [1]: 48% and 39%
% reduction after 72 h [1]: 18% and 27%
% reduction after 96 h [1]: 5% and 15%

[O-][S+](Cc1ccccc1)SCc1ccccc1 (stereo not shown) [Dibenzyl thiosulfinate, di-benzyl thiosulfinate]
% reduction after 24 h average (milk yield) [1]: 38%
% reduction after 48 h average (milk yield) [1]: 37%
% reduction after 72 h average (milk yield) [1]: 27.5%
% reduction after 96 h average (milk yield) [1]: 5%
average reduction after 24, 48 and 72 h (%) (milk yield) [1]: 34.2%
Average reduction after 24 and 48 h (%) (milk yield) [1]: 37.5%
Milk yield (kg) Last milking [1]: 30.3 kg and 27.9 kg
Average reduction after 24 and 48 h (%) [1]: 32.5% and 42.5%
Milk yield (kg) After 24 h [1]: 20.4 kg and 15.6 kg
Milk yield (kg) After 48 h [1]: 20.7 kg and 15.9 kg
Milk yield (kg) After 72 h [1]: 24.3 kg and 17.9 kg
Milk yield (kg) After 96 h [1]: 28.1 kg and 27.3 kg
average reduction after 24, 48 and 72 h (%) [1]: 28.5% and 39.7%
% reduction after 24 h [1]: 33% and 43%
% reduction after 48 h [1]: 32% and 42%
% reduction after 72 h [1]: 20% and 35%
% reduction after 96 h [1]: 7% and 3%

CC(C)SSC(C)C [Diisopropyl disulfide, di-isopropyl disulfide]
Milk yield (kg) After 24 h [1]: 13.6 kg
Milk yield (kg) After 48 h [1]: 15.4 kg
Milk yield (kg) After 72 h [1]: 18.5 kg
Milk yield (kg) After 96 h [1]: 19.5 kg

O=S(=O)(Cc1ccccc1)SCc1ccccc1 [Dibenzyl thiosulfonate, di-benzyl thiosulfonate]
% reduction after 24 h average (milk yield) [1]: 48%
% reduction after 48 h average (milk yield) [1]: 48%
% reduction after 72 h average (milk yield) [1]: 28%
% reduction after 96 h average (milk yield) [1]: 15%
average reduction after 24, 48 and 72 h (%) (milk yield) [1]: 41.3%
Average reduction after 24 and 48 h (%) (milk yield) [1]: 48%
Milk yield (kg) Last milking [1]: 27.8 kg
Average reduction after 24 and 48 h (%) [1]: 48%
Milk yield (kg) After 24 h [1]: 14.5 kg
Milk yield (kg) After 48 h [1]: 14.6 kg
Milk yield (kg) After 72 h [1]: 19.9 kg
Milk yield (kg) After 96 h [1]: 23.5 kg
average reduction after 24, 48 and 72 h (%) [1]: 41.3%
% reduction after 24 h [1]: 48%
% reduction after 48 h [1]: 48%
% reduction after 72 h [1]: 28%
% reduction after 96 h [1]: 15%

CCCS(=O)(=O)CCC [Di-n-propyl sulfone, di-n-propyl sulfone]
Milk yield (kg) After 24 h [1]: 13.7 kg
Milk yield (kg) After 48 h [1]: 13.8 kg
Milk yield (kg) After 72 h [1]: 15.2 kg
Milk yield (kg) After 96 h [1]: 18.7 kg

From patent publication US20260083687A1, “COMPOUNDS FOR REDUCING LACTATION AND IMPROVING HEALTH” (AHV International B.V., priority 2022, published 2026)
